Consider 23 molecules from PubChem BioAssay AID743405 (Broad Institute, 2014).

A short description of test [1]: NIH3T3 cell cytotoxicity, dose response, cytotoxicity control, plate reader, dry powder (AID 743405). Conditions: NIH3T3 viability, CellTiter-Glo ATP luminescence, 48 h; at 35 µM (top of the series). For orientation: Cellular ATP, detected with luciferase, serves as a proxy for viable cell number.
Test [2] has as its system NIH3T3 viability, CellTiter-Glo ATP luminescence, 48 h. The description is as above.

Active and inactive are the calls of the source.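 Rule for the calls: active = signal drops with AC50 under 10 µM, fitted no higher than twice the top valid tested dose; inactive = effect in the opposite direction, plus the rest.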

For the molecule `COc1ccc(-n2ncc3c(N4CCCCC4)ncnc32)cc1`, the activity change, negative = cytotoxicity in test [1] is -2.9% (inactive).

`O=C1S/C(=C\c2ccc(N3CCOCC3)o2)C(=O)N1Cc1c(F)cccc1Cl`: in test [1], the activity change, negative = cytotoxicity was 92.2% (inactive).

As to `Cc1c(C)c2ccc(OCC(=O)Nc3ccccn3)c(C)c2oc1=O`, the concentration at half-maximal activity (AC50) – broadly, the concentration giving half of the maximal activity seen – in test [2] was 36.4 µM.

Take `O=C(NCCc1ccccc1)c1ccc2c(c1)OCCCO2`: the activity change, negative = cytotoxicity in test [1] was 4.4% (inactive).

With `Cc1cc(C(=O)COC(=O)c2ccccc2O)c(C)n1Cc1cccs1`, the activity change, negative = cytotoxicity in test [1] was -7.18% (inactive).

`O=C(NCCc1ccccc1)c1ccc2c(c1)OCCO2`: the activity change, negative = cytotoxicity in test [1] is 5.21% (inactive).

Turning to `O=C(c1n[nH]c(=O)c2ccccc12)N1CCN(C2c3ccccc3-c3ccccc32)CC1`, the activity change, negative = cytotoxicity in test [1] was 8.43% (inactive).

As to `Cc1ccc(C(=O)Nc2cnc3ccccc3c2)cc1`, the activity change, negative = cytotoxicity in test [1] was -0.872% (inactive).

With `Cc1cc(S(=O)(=O)NCc2ccncc2)c(C)cc1Br`, the activity change, negative = cytotoxicity in test [1] was -1.39% (inactive).

Turning to `CCN(CC)Cc1c(O)ccc2c1O/C(=C\C=C\c1ccccc1)C2=O`, the activity change, negative = cytotoxicity in test [1] is 9.2% (inactive).

For `Cc1nc(SCC(=O)Nc2nc3ccccc3s2)c(C#N)c(C)c1C`, the activity change, negative = cytotoxicity in test [1] was -9.06% (inactive).

As to `CCSc1nnc(NC(=O)c2nc(S(=O)(=O)Cc3ccc(F)cc3)ncc2Cl)s1`, the activity change, negative = cytotoxicity in test [1] is 45.4% (inactive).

Turning to `O=C(CN1C(=O)c2ccccc2S1(=O)=O)c1ccc(Cl)cc1Cl`, the activity change, negative = cytotoxicity in test [1] was 5.03% (inactive).

Consider `COc1c(CC=C(C)C)cc(C2CC(=O)c3c(O)cc(O)cc3O2)cc1CC=C(C)C` (stereo not drawn), for which, in test [2], the concentration at half-maximal activity (AC50) is 32.9 µM.

With `COc1ccc(CNC(=O)C(c2ccc(C)cc2)N(Cc2cccs2)C(=O)c2ccc3c(c2)OCCO3)cc1` (stereo not drawn), the activity change, negative = cytotoxicity in test [1] is -4.92% (inactive).

For the molecule `COc1ccc(CNC(=O)C(C)n2ccc3cc(S(=O)(=O)N4CCCCCC4)ccc32)cc1` (stereo not drawn), the activity change, negative = cytotoxicity in test [1] is -0.861% (inactive).

For `Cc1ccc(CNC(=O)CSc2c3c(nc4ccc(Cl)cc24)CCCC3)o1`, in test [1], the activity change, negative = cytotoxicity was 11.2% (inactive).

For the molecule `CCOC(=O)Cn1c(S(=O)(=O)Cc2ccccc2Cl)nc(-c2ccccc2)c1-c1ccccc1`, in test [1], the activity change, negative = cytotoxicity is 3.41% (inactive).

As to `COc1ccc(OCc2cccc(C(=O)O)c2)cc1`, the AC50 in test [2] is > 70 µM (inactive).

As to `Cc1cccc(CSc2cccc3cccnc23)c1`, the AC50 in test [2] was > 70 µM (inactive).

With `O=C(O)c1cccc(COc2ccccc2Cl)c1`, the activity change, negative = cytotoxicity in test [1] was -3.99% (inactive).

As to `O=C(CN1C(=O)c2ccccc2S1(=O)=O)c1ccc2c(c1)OCCCO2`, the activity change, negative = cytotoxicity in test [1] is 8.65% (inactive).

As for `Cc1ccc(-c2cn3cc(C)ccc3n2)cc1`, the AC50 in test [2] was > 70 µM (inactive).
